Data published in US12458688B2, “Epitopes” (Scancell Limited, priority 2018, dated 2025).
Where no end group is shown, it is not given here. [ ]: non-standard residue; d: D form. hCit = NC(=O)NCCCC[C@H](N)C(=O)O

What was measured:
HLA transgenic mice = assay: T cell response to Hcit peptides in HLA transgenic mice (screening, ex vivo ELISpot); design: species or system mouse; settings: yes/no; Hcit peptide with CpG/MPLA
Description: (§1) C57BL/6 mice (Charles River, UK), HLA-DR4 mice (Model #4149, Taconic, USA), HLA-A2/DR1 (HHDII/DR1, Pasteur Institute), HLA-A2.1+/+HLA-DP4+/+hCD4+/+ (HLA-HHDII/DP4) transgenic mice (EM: 02221, European Mouse Mutant Archive) described in patent WO2013/017545 A1 (EMMA repository, France) were used, aged between 8 and 12 weeks. Peptides were dissolved in PBS to 1 mg/ml and then emulsified (a series of dilutions) with CpG ODN 1826 and MPLA 6 μg/mouse of each (Invivogen, UK). Peptides (25 μg/mouse) were injected subcutaneously at the base of the tail. Mice were immunised at days 1, 7 and 14 for peptide immunisation. Spleens were removed for analysis at day 21 unless stated otherwise.
(§2) ELISpot assays were performed using murine IFNγ, IL-17 and IL-10 capture and detection reagents according to the manufacturer's instructions (Mabtech, Sweden). In brief, anti-IFNγ, IL-17 and IL-10 specific antibodies were coated onto wells of 96-well Immobilin-P plate. Synthetic peptides (at various concentrations) and 5×10^5 per well splenocytes were added to wells of the plate in quadruplicate Tumour target cells were added where relevant at 5×10^4/well in triplicate and plates incubated for 40 hrs at 37° C. After incubation, captured IFNγ, IL-10 and IL-17 were detected by biotinylated anti-IFNγ, IL-10 and IL-17 antibodies and developed with a streptavidin alkaline phosphatase and chromogenic substrate. Lipopolysaccharide (LPS; 5 μg/ml) was used as a positive control. For MHC blocking studies, anti-CD4 blocking antibody (GK1.5) or anti-CD4 blocking antibody (RPA-T4) for HHDII/DP4 mice which express human CD4 and anti-CD8 blocking antibody (2.43) from Bioxcell were used at 20 μg/ml. Spots were analysed and counted using an automated plate reader (Cellular Technologies Ltd).
(§3) Screening was performed to identify potential homocitrullinated vimentin epitopes in mice. Mice were immunised with pools of homocitrullinated peptides. […] Each pool was administered as three immunisations containing 20 μg of each peptide and CpG/MPLA as an adjuvant on day 1, 8 and 15. On day 21 the mice were culled and the immune responses to each peptide within the immunising pool were assessed by ex vivo ELISpot. Given that different mouse strains have different MHC repertoires a number of strains were used for screening. Peptide responses were assessed in transgenic strains expressing human DR4 or HHDII/DR1 in a C57BL/6 background (see methods).
(§4) Screening was performed to identify potential homocitrullinated ALDOA epitopes in transgenic HHDII/DP4 and HHDII/DR1 mice. Mice were immunised with pools of human homocitrullinated peptides. […] Each pool was administered as three immunisations containing 20 μg of each peptide and CpG/MPLA as an adjuvant. After 21 days the mice were culled and the immune responses to each peptide within the immunising pool were assessed by ex vivo ELISpot in HHDII/DP4 (FIG. 4b) and HHDII/DR1 mice (FIG. 4d).
as §4, with “Using this combination of predictions, 5 CyK8 peptides containing homocitrulline were synthesised (Table 4). Screening” for “Screening”, “Cyk8” for “ALDOA”, “HHDII/DP4.” for “HHDII/DP4 and HHDII/DR1 mice.”, “10a).” for “4b) and HHDII/DR1 mice (FIG. 4d).”

HLA-HHDII/DP4 mice = assay: Ex vivo IFNγ ELISpot after peptide immunisation, HHDII/DP4 mice; assay type: in vivo, mouse; settings: for IFNγ ELISpot response: 3 immunisations with CpG/MPLA, day 21
Description: as §1, §2
as §4, with “4d). […] Our predictions therefore identified 3/5 peptides which could induce a T cell response. […] Of the responding peptides ALDOA 74-93 Hcit and 140-157 Hcit peptides are homologous in human and mice therefore these two peptides were selected for further investigation. Minimal IL-10 (FIG. 6b) or IL-17 (FIG. 6c) responses were seen to Aldolase peptides in HHDII/DP4 mice.” for “4d).”
Using this combination of predictions, 5 CyK8 peptides containing homocitrulline were synthesised (Table 4). Screening was performed to identify potential homocitrullinated Cyk8 epitopes in transgenic HHDII/DP4. Mice were immunised with pools of human homocitrullinated peptides. […] Each pool was administered as three immunisations containing 20 μg of each peptide and CpG/MPLA as an adjuvant. After 21 days the mice were culled and the immune responses to each peptide within the immunising pool were assessed by ex vivo ELISpot in HHDII/DP4 (FIG. 10a). […] The responses to CyK8 101-120 Hcit, 112-131 Hcit, 182-201 Hcit, 371-388 Hcit and 381-399 Hcit immunisation were characterised for cross reactivity to the wt peptide sequence. […] Thus a key characteristic of immunogenic peptides is they express homocitrulline. All of these peptides (100%) were immunogenic. Thus a high predicted HLA-DP4 binding affinity (<30), the presence of homocitrulline residues in the core region, the peptide being amphipathic in nature with a predominantely spiral conformational structure upon 3D modelling, and the existence of homology between the mouse and human sequences defines immunogenicity. When this model was applied retrospectively to include the vimentin and ALDOA peptides 8/9 (88%) were correctly predicted. […]

B16F1 HHDII/DR1 tumours = assay: Tumour therapy, B16F1 HHDII/DR1 tumour in HHDII/DR1 mice; assay type: in vivo, mouse; settings: peptide with CpG/MPLA days 4, 11, 18
Excerpt: To determine if the epitopes that stimulate T cell responses are presented on MHC-II within the tumour environment, our homocitrullinated peptides were checked for tumour therapy in B16 tumour models. Mice were implanted with tumour cells on day 1 and then immunised with peptides and CpG/MPLA on days 4, 11 and 18.
HHDII/DR1 (FIG. 19a) or DR4 (FIG. 19b) transgenic mice were challenged with B16F1 HHDII/DR1 or B16F1 DR4 tumours respectively prior to immunisation with vimentin 116-135Hcit peptide and tumour growth and survival were monitored.
HHDII/DR1 mice were implanted with B16HHDII/DR1 tumour cells on day 1 and then immunised with Cyk8 371Hcit, 112hcit or both peptides and CpG/MPLA on days 4, 11 and 18.

HLA-DR4 mice = assay: Ex vivo IFNγ ELISpot after peptide immunisation, HLA-DR4 mice; assay type: in vivo, mouse; settings: for IFNγ ELISpot response: 3 immunisations with CpG/MPLA, day 21
Description: as §1, §2, §3

Substance | T cell response (HLA transgenic mice) | IFNγ response in presence of CD4 blocking antibody (HLA-HHDII/DP4 mice) | IFNγ response in presence of CD8 blocking antibody (HLA-HHDII/DP4 mice) | cross reactivity of Hcit response to wt peptide (HLA-HHDII/DP4 mice) | IFNγ ELISpot response (HLA-HHDII/DP4 mice) | anti-tumour response / survival vs control (B16F1 HHDII/DR1 tumours) | IFNγ ELISpot response (HLA-DR4 mice) | IFNγ response in presence of CD4 blocking antibody (HLA-DR4 mice) | IFNγ response in presence of CD8 blocking antibody (HLA-DR4 mice) | cross reactivity of Hcit response to wt peptide (HLA-DR4 mice) | survival (B16F1 HHDII/DR1 tumours) [%]
LEQQN-hcit-MLET-hcit-WSLLQQQ-hcit-T (LEQQN[hCit]MLET[hCit]WSLLQQQ[hCit]T) [Cyk8 112-131 Hcit] | Yes | not with CD4 blocking antibody | inhibited | significantly higher | stimulation of IFNγ responses | Significant prevention of tumour growth | – | – | – | – | –
HACTQ-hcit-FSH(N)EEIAMATVTA (HACTQ[hCit]FSHNEEIAMATVTA; not fully specified; printed as HACTQ-hcit-FSH(N)EEIAMATVTA) [Aldolase A 238-256 Hcit] | yes | – | – | – | stimulation of IFNγ responses | – | – | – | – | – | –
hcit-LALDIEIATYR-hcit-LLEGEE ([hCit]LALDIEIATYR[hCit]LLEGEE) [Cyk8 381-399 Hcit] | Yes | – | – | significantly higher | stimulation of IFNγ responses | – | – | – | – | – | –
LREYQELMNV-hcit-LALDIEI (LREYQELMNV[hCit]LALDIEI) [Cyk8 371-388 Hcit] | Yes | inhibited | – | significantly higher | – | Significant prevention of tumour growth | – | – | – | – | –
EIN-hcit-RTEMENEFVLI-hcit-hcit-DVDE (EIN[hCit]RTEMENEFVLI[hCit][hCit]DVDE) [Cyk8 182-202 Hcit] | Yes | – | – | – | stimulation of IFNγ responses | – | – | – | – | – | –
hcit-DGADFA-hcit-WRCVL-hcit-IGEH ([hCit]DGADFA[hCit]WRCVL[hCit]IGEH) [Aldolase A 140-157 Hcit] | yes | significantly reduced | – | limited responses | stimulation of IFNγ responses | significant increase in survival | No responses were seen | – | – | – | –
IGGVILFHETLYQ-hcit-ADDGRP (IGGVILFHETLYQ[hCit]ADDGRP) [Aldolase A 74-93 Hcit] | yes | significantly reduced | – | limited responses | stimulation of IFNγ responses | – | No responses were seen | – | – | – | –
NYID-Hcit-VRFLEQQN-Hcit-ILLAEL (NYID[hCit]VRFLEQQN[hCit]ILLAEL) [Vimentin 116-135 Hcit] | yes | – | – | – | no IFNγ responses were observed | – | significant response | significantly decreased | not in the presence of the CD8 blocking antibody | no cross reactivity | 50
KFASFID-Hcit-VRFLEQQN-Hcit-MLE (KFASFID[hCit]VRFLEQQN[hCit]MLE) [Cyk8 101-120 Hcit] | Yes | inhibited | – | – | stimulation of IFNγ responses | – | – | – | – | – | –
